This is an account of results in EP1611892A2, “Pharmaceutical compositions comprising drospirenone” (Schering Aktiengesellschaft, priority 2000, dated 2001).

Format in all cases: physicochemical
Data set [1] can be described thus: Solubility in water and aqueous buffers. The following applies: in water and aqueous buffers at various pH values.
The nature of data set [2]: Chemical stability under acid and alkaline conditions.
Data set [3] is described as follows: In vitro dissolution from a tablet preparation (USP XXIII Paddle Method). The note with it: drospirenone in micronized form; rapid dissolution defined as at least 70% over about 30 minutes from a 3 mg tablet in 900 ml of water at 37°C, 50 rpm.

Take `C[C@]12CCC(=O)C=C1[C@@H]1C[C@@H]1[C@H]1[C@@H]3[C@@H]4C[C@@H]4[C@@]4(CCC(=O)O4)[C@@]3(C)CC[C@@H]12` [drospirenone, 6β,7β;15β;16β-dimethylene-3-oxo-17α-preg-4-ene-21,17-carbolactone]: the solubility result in data set [1] was “sparingly soluble”. For the same compound, the “stability under acid conditions” value in data set [2] (acid conditions) was “rearranged to an inactive isomer”. Also, the “stability under alkaline conditions” value in data set [2] (alkaline conditions) is “hydrolysed”. The “dissolution of the active compound from the composition in vitro” value in data set [3] is “rapid dissolution”.
